Assay results: US8946477B2, “Solid forms of an N-(phenylmethyl) propanamide derivative and processes of preparation” (Medichem, S.A., priority 2009, dated 2015)

Experiment: Stability studies: storage under standard conditions, then XRD analysis
Type: physicochemical
Settings: for XRD after storage (polymorphic form): stored at room temperature, air atmosphere

COC[C@@H](NC(C)=O)C(=O)NCc1ccccc1 [Example 41, (2R)-2-(acetylamino)-3-methoxy-N-(phenylmethyl)propanamide]
XRD after storage (polymorphic form) (normal pressure, storing time 295 days): Form III

COC[C@@H](NC(C)=O)C(=O)NCc1ccccc1 [amorphous lacosamide, (2R)-2-(acetylamino)-3-methoxy-N-(phenylmethyl)propanamide]
stability on storage (ambient conditions and air atmosphere for at least 250 days, more typically at least 300 days): substantially stable | XRD after storage (FIG. 13 vs FIG. 12) (room temperature, normal pressure, air atmosphere for 304 days (Example 63)): retention of amorphous Form

COC[C@@H](NC(C)=O)C(=O)NCc1ccccc1 [Example 42, (2R)-2-(acetylamino)-3-methoxy-N-(phenylmethyl)propanamide]
XRD after storage (polymorphic form) (normal pressure, storing time 290 days): Form III

COC[C@@H](NC(C)=O)C(=O)NCc1ccccc1 [lacosamide Form III, (2R)-2-(acetylamino)-3-methoxy-N-(phenylmethyl)propanamide]
polymorphic stability on storage (ambient conditions and air atmosphere for at least 250 days, more typically at least 290 days): substantially no polymorphic interconversion is observed
